Counter-ions that a name gives are not always drawn.
Columns and labels:
[1] = biological target: T1, delta-5-desaturase (Rattus norvegicus, UniProt Q920R3); experiment: Inhibitory activity on binding of [3H]-labelled Reference Example 1 ligand to delta-5-desaturase (rat liver microsome fraction); conditions: test compound 10 μM; for inhibition at 10 µM: 3 nM tritiated ligand of Reference Example 1, read-out: Binding inhibitory activity against compound bind to delta-5-desaturase Binding inhibition rate (%) at 10 μM
T1 construct: a rat liver microsome fraction (10 μl) diluted to 3 mg/ml with a microsome buffer; from tissue; host or cells: rat liver microsome fraction
Procedure: Inhibitory Activity on Binding of N-[2-({4-oxo-3-[4-(2,2,2-trifluoroethoxy)[2,6-^3H2]phenyl]-3,4-dihydrothieno[3,4-d]pyrimidin-2-yl}sulfanyl)ethyl]acetamide (Reference Example 1) to delta-5-desaturase)
All tests were performed at room temperature at 200 μL/well. A rat liver microsome fraction (30 μg/well) was preincubated with a test compound at a final concentration of 10 μM for 15 min in an assay buffer (10 mM Tris-HCl (pH 7.5), 100 mM KCl, 10 mM NaF, 3 mM MgCl2, 0.005% Tween20 and 1 mM GSH). N-[2-({4-oxo-3-[4-(2,2,2-trifluoroethoxy) [2,6-^3H2]phenyl]-3,4-dihydrothieno[3,4-d]pyrimidin-2-yl}sulfanyl)ethyl]acetamide was added to a final concentration of 3 nM and the mixture was incubated for 150 min. For Bound/Free separation, the membrane fraction was added on a GF/C glass filter using a cell harvester. The GF/C glass filter was washed 5 times with 300 μl of ice-cooled assay buffer (without 0.005% Tween) to separate the ligand bound to delta-5-desaturase. 50 μl of MicroScinti 0 was added, and the radioactivity on the filter was measured by TopCount. To evaluate non-specific binding, 10 μM N-[2-({4-oxo-3-[4-(2,2,2-trifluoroethoxy)phenyl]-3,4-dihydrothieno[3,4-d]pyrimidin-2-yl}sulfanyl)ethyl]acetamide was used. The inhibitory rate (%) of the test compound (10 μM) on the binding of N-[2-({4-oxo-3-[4-(2,2,2-trifluoroethoxy) [2,6-^3H2]phenyl]-3,4-dihydrothieno[3,4-d]pyrimidin-2-yl}sulfanyl)ethyl]acetamide to delta-5-desaturase was determined.

[2] = biological target: T1, delta-5-desaturase; experiment: Delta-5-desaturase inhibitory activity using rat liver microsome; assay type: biochemical; conditions: test compound 10 μM
Procedure: Delta-5-Desaturase Inhibitory Activity Using Rat Liver Microsome
The inhibitory activity of the test compound on delta-5-desaturase was measured by the method described below. To a solution of the test compound in DMSO prepared in advance was secondarily diluted with a buffer (300 mM NaH2PO4 [pH 7.4], 450 mM KCl, 30 mM NaF, 9 mM MgCl2, 4.5 mM glutathione [reduced form], 0.3% BSA [fatty acid free, SIGMA]) to give an assay buffer. The assay buffer (10 μl) was dispensed to a polypropylene deep 96-well block, and a rat liver microsome fraction (10 μl) diluted to 3 mg/ml with a microsome buffer (10 mM Tris-HCl [pH 7.4], 1 mM EDTA, 250 mM sucrose) was added. The enzyme reaction was started by adding 9 mM NADH, 9 mM ATP, 0.9 mM CoA, 10 μCi/ml (8E,11E,14E)-(1-^14C)eicosa-8,11,14-trienoic acid (PerkinElmer Inc.) (10 μl). The enzyme reaction was performed for 120 min at room temperature, and discontinued by the addition of 10 μl of 2.5M NaOH. After discontinuation of the reaction, the plate was sealed and incubated overnight at 55° C. to allow saponification. The fatty acid was extracted with solvent based on the Bligh & Dyer method described in Can. J. Biochem. Physiol., vol. 37, page 911 (1959) by adding formic acid:methanol:chloroform (1:6:3) (200 μl), maintaining the single layer state, sufficiently stirring the mixture and adding pure water (120 μl) for separation into two layers. The lower chloroform layer (10 μl) was spotted on a reversed-phase TLC plate (RP-18, 1154230001, Merck Japan, Ltd.), developed with acetonitrile:pure water:acetic acid (95:4.5:0.5), and the dried TLC plate was transcribed on Imaging Plate (Fuji Photo Film Co., Ltd.) for 5 hr or longer. The detection was performed using BAS-5000 (Fuji Photo Film Co., Ltd.), and the obtained spot image was numerically converted by Multi Gauge Ver2.3 (Fuji Photo Film Co., Ltd.) and a delta-5-desaturase inhibitory rate (%) of 10 μM test compound was determined.

[3] = biological target: T2, delta-5-desaturase (Homo sapiens, UniProt O60427); experiment: Delta-5-desaturase inhibitory activity using HepG2 cell; assay type: cell-based; conditions: test compound 1 μM
T2 construct: endogenous in cells; host or cells: HepG2
Procedure: Delta-5-Desaturase Inhibitory Activity Using HepG2 Cell
HepG2 was plated on a 96-well plate at 1×10^5 cells/well, and cultured overnight in DMEM (Dulbecco's modified Eagle medium) containing 10% FBS (fetal bovine serum). After washing (200 μL×2) with PBS (phosphate buffered saline), 40 μL of a reaction medium (DMEM, penicillin/streptomycin, 0.3% BSA) containing the test compound was added, and the mixture was preincubated in a CO2 incubator at 37° C. for 30 min. The reaction was started by adding a reaction medium (20 μL) containing 0.1 μCi [^14C]Eicosatrienoic acid, and the mixture was incubated in a CO2 incubator at 37° C. Incubation was performed for 3 hr, the cells were washed twice with 200 μL of PBS, detached with 50 μL of trypsin-EDTA and placed on a 96-deep well block. Furthermore, 20 μL of 2.5N NaOH was added, the plate was sealed and incubated overnight at 55° C. to allow saponification. The fatty acid extraction included acidifying with 10 μL of formic acid, adding chloroform:methanol (1:4), stirring, and further adding 200 μL of pure water to separate into two layers. The operation after development with TLC followed the method of detection system using TLC in a system using a rat liver microsome. A delta-5-desaturase inhibitory rate (%) of 1 μM test compound was determined.

T2 sequence (O60427 whole entry): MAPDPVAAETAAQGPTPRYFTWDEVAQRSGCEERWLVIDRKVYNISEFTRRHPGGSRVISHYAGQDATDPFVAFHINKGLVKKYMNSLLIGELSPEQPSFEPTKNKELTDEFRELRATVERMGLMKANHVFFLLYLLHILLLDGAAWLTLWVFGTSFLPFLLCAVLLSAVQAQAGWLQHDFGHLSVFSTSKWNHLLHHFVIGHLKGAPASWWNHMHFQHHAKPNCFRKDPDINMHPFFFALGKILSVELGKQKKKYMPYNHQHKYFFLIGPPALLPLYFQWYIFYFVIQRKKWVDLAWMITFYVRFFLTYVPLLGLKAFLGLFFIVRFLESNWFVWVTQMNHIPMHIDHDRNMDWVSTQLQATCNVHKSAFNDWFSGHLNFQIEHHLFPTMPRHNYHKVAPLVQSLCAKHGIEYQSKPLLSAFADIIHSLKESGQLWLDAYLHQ
T1 sequence (Q920R3 whole entry): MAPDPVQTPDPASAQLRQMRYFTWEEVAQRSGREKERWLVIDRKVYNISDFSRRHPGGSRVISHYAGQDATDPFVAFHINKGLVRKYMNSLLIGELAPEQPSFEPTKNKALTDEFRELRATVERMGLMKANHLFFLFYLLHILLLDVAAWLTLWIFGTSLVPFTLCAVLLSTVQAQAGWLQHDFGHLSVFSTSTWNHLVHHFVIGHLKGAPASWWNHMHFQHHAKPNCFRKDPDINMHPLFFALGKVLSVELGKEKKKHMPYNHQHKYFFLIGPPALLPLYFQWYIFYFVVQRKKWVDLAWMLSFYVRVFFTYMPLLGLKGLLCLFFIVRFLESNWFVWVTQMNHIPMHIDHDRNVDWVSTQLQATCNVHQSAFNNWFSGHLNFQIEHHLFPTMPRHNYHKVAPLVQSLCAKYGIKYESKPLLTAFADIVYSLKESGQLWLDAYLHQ

Row | inhibition at 10 µM [1] [%] | inhibition at 10 µM [2] [%] | inhibition at 1 µM [3] [%] | Binding inhibitory activity against compound bind to delta-5-desaturase Binding inhibition rate (%) at 10 μM ([1]; 3 nM tritiated ligand of Reference Example 1, sodium salt) [%] | delta-5-desaturase inhibitory activity (at liver microsome) Inhibitory activity (%) at 10 μM ([2]; sodium salt, 10 µM) [%] | SMILES
1 | 88 | 98 | 93 |  |  | CCOc1nc2c(OCCOC)nccc2c(=O)n1-c1ccc(OCC(F)(F)F)cc1 [Example 34, 2-ethoxy-8-(2-methoxyethoxy)-3-[4-(2,2,2-trifluoroethoxy)phenyl]pyrido[3,4-d]pyrimidin-4(3H)-one]
2 | 95 | 100 | 98 |  |  | O=c1ccc2c(=O)n(-c3ccc(OCC(F)(F)F)cc3)c(OCC(F)(F)F)nc2[nH]1 [Example 11, 2-(2,2,2-trifluoroethoxy)-3-[4-(2,2,2-trifluoroethoxy)phenyl]pyrido[2,3-d]pyrimidine-4,7(3H,8H)-dione]
3 | 97 | 97 | 96 |  |  | CCCSc1nc2c(=O)[nH]ccc2c(=O)n1-c1ccc(OCC(F)(F)F)cc1 [Example 30, 2-(propylsulfanyl)-3-[4-(2,2,2-trifluoroethoxy)phenyl]-3,7-dihydropyrido[3,4-d]pyrimidine-4,8-dione]
4 | 85 | 90 |  |  |  | CCNc1nc2[nH]c(=O)ccc2c(=O)n1-c1ccc(OCC(F)(F)F)cc1 [Example 19, 2-(ethylamino)-3-[4-(2,2,2-trifluoroethoxy)phenyl]pyrido[2,3-d]pyrimidine-4,7(3H,8H)-dione]
5 | 99 | 105 | 103 |  |  | O=c1ccc2c(=O)n(-c3ccc(OCC(F)(F)F)cc3)c(OCC(F)(F)CO)nc2[nH]1 [Example 17, 2-(2,2-difluoro-3-hydroxypropoxy)-3-[4-(2,2,2-trifluoroethoxy)phenyl]pyrido[2,3-d]pyrimidine-4,7(3H,8H)-dione]
6 | 96 | 102 | 107 |  |  | CCSc1nc2nc(N)ccc2c(=O)n1-c1ccc(OCC(F)(F)F)cc1 [Example 26, 7-amino-2-(ethylsulfanyl)-3-[4-(2,2,2-trifluoroethoxy)phenyl]pyrido[2,3-d]pyrimidin-4(3H)-one]
7 | 96 | 101 | 93 |  |  | CCSc1nc2c(OC)nccc2c(=O)n1-c1ccc(OCC(F)(F)F)cc1 [Example 33, 2-(ethylsulfanyl)-8-methoxy-3-[4-(2,2,2-trifluoroethoxy)phenyl]pyrido[3,4-d]pyrimidin-4(3H)-one]
8 | 97 | 102 |  |  |  | CCCSc1nc2nc(OC)ccc2c(=O)n1-c1ccc(OCC(F)(F)F)cc1 [Example 3, 7-methoxy-2-(propylsulfanyl)-3-[4-(2,2,2-trifluoroethoxy)phenyl]pyrido[2,3-d]pyrimidin-4(3H)-one]
9 | 97 | 104 | 97 |  |  | CC(C)Oc1nc2[nH]c(=O)ccc2c(=O)n1-c1ccc(OCC(F)(F)F)cc1 [Example 20, 2-(1-methylethoxy)-3-[4-(2,2,2-trifluoroethoxy)phenyl]pyrido[2,3-d]pyrimidine-4,7(3H,8H)-dione]
10 | 96 | 99 | 97 |  |  | CCOc1nc2[nH]c(=O)ccc2c(=O)n1-c1ccc(OCC(F)(F)F)cc1 [Example 9, 2-ethoxy-3-[4-(2,2,2-trifluoroethoxy)phenyl]pyrido[2,3-d]pyrimidine-4,7(3H,8H)-dione]
11 | 97 | 99 | 96 |  |  | CCSc1nc2c(=O)[nH]ccc2c(=O)n1-c1ccc(OCC(F)(F)F)cc1 [Example 29, 2-(ethylsulfanyl)-3-[4-(2,2,2-trifluoroethoxy)phenyl]-3,7-dihydropyrido[3,4-d]pyrimidine-4,8-dione]
12 | 101 | 101 | 92 |  |  | CCSc1nc2c(=O)n(C)ccc2c(=O)n1-c1ccc(OCC(F)(F)F)cc1 [Example 36, 2-(ethylsulfanyl)-7-methyl-3-[4-(2,2,2-trifluoroethoxy)phenyl]-3,7-dihydropyrido[3,4-d]pyrimidine-4,8-dione]
13 | 97 | 99 | 93 |  |  | CCSc1nc2nc(OC)cnc2c(=O)n1-c1ccc(OCC(F)(F)F)cc1 [Example 37, 2-(ethylsulfanyl)-7-methoxy-3-[4-(2,2,2-trifluoroethoxy)phenyl]pteridin-4(3H)-one]
14 | 84 | 92 | 95 |  |  | COc1nc2[nH]c(=O)ccc2c(=O)n1-c1ccc(OCC(F)(F)F)cc1 [Example 18, 2-methoxy-3-[4-(2,2,2-trifluoroethoxy)phenyl]pyrido[2,3-d]pyrimidine-4,7(3H,8H)-dione]
15 | 98 | 98 | 92 |  |  | CCSc1nc2c(c(=O)n1-c1ccc(OCC(F)(F)F)cc1)SCC(=O)N2 [Example 25, 2-(ethylsulfanyl)-3-[4-(2,2,2-trifluoroethoxy)phenyl]-3H-pyrimido[5,4-b][1,4]thiazine-4,7(6H,8H)-dione]
16 |  |  |  | 96 | 98 | CCSc1nc2[nH]c(=O)ccc2c(=O)n1-c1ccc(OCC(F)(F)F)cc1 [Example 7, 2-(ethylsulfanyl)-3-[4-(2,2,2-trifluoroethoxy)phenyl]pyrido[2,3-d]pyrimidine-4,7(3H,8H)-dione sodium salt]
17 |  | 103 | 103 |  |  | COCC(F)(F)COc1nc2[nH]c(=O)ccc2c(=O)n1-c1ccc(OCC(F)(F)F)cc1 [Example 14, 2-(2,2-difluoro-3-methoxypropoxy)-3-[4-(2,2,2-trifluoroethoxy)phenyl]pyrido[2,3-d]pyrimidine-4,7(3H,8H)-dione]
18 | 93 | 97 |  |  |  | CSc1nc2c(c(=O)n1-c1ccc(OCC(F)(F)F)cc1)CCC(=O)N2 [Example 21, 2-(methylsulfanyl)-3-[4-(2,2,2-trifluoroethoxy)phenyl]-5,6-dihydropyrido[2,3-d]pyrimidine-4,7(3H,8H)-dione]
19 | 89 |  | 92 |  |  | CCCc1nc2c(c(=O)n1-c1ccc(OCC(F)(F)F)cc1)CCC(=O)N2 [Example 40, 2-propyl-3-[4-(2,2,2-trifluoroethoxy)phenyl]-5,6-dihydropyrido[2,3-d]pyrimidine-4,7(3H,8H)-dione]

— patent publication US9023858B2, “Substituted pyrido[2,3-d]pyrimidines as delta-5-desaturase inhibitors” (Takeda Pharmaceutical Company Limited, priority 2010, dated 2015)
